“Also recorded” adds a separate entry of the source. Read-outs that look alike come from different tables or passages of the source.

Assay [1] concerns the target T1, α7-5HT3 wt chimeric receptor (Homo sapiens, UniProt P36544, M226I/T225I).
T1 construct: expressed in transfected cells; host or cells: HEK 293 cells
As to the kind of experiment: fluorescence membrane potential (MP) assay, HEK 293 cells. Format: cell-based, human/mouse. The following applies: dose response curves, MP assay.

Assay [2] has as its target T2, α7-5HT3 Q79G (Homo sapiens, UniProt P36544, M226I/Q79G/T225I).
T2 construct: expressed in transfected cells; host or cells: HEK 293 cells (ATCC CRL-1573)
As to the kind of experiment: whole cell voltage clamp recordings (Iss, Ipeak). Format: cell-based, human/mouse.

Assay [3] deals with T3, α7-5HT3 Q79G L141S (Homo sapiens, UniProt P36544, L141S/M226I/Q79G/T225I).
T3 construct: expressed in transfected cells
In words: whole cell voltage clamp recordings (Iss, Ipeak). Format: cell-based, human/mouse. The conditions noted are these: for EC50: α7 Q79G L141S, IPD 5HT3.

Assay [4] addresses T3, α7-5HT3 Q79G L141S. As to the kind of experiment: fluorescence membrane potential (MP) assay, HEK 293 cells. Format: cell-based, human/mouse. The conditions noted are these: IPD 5HT3, value (s.e.m.).
For assay [5], the target named is T4, α7-5HT3 Q79G Q139G (Homo sapiens, UniProt P36544, M226I/Q139G/Q79G/T225I).
T4 construct: expressed in transfected cells
The description is as above. Format: cell-based, human/mouse. The following applies: IPD 5HT3.

Assay [6] addresses T4, α7-5HT3 Q79G Q139G. As to the kind of experiment: whole cell voltage clamp recordings (Iss, Ipeak). Format: cell-based, human/mouse.
Assay [7] has as its target T2, α7-5HT3 Q79G. As to the kind of experiment: fluorescence membrane potential (MP) assay, HEK 293 cells. Format: cell-based, human/mouse.
In another assay the target is T5, α7-GlyR Q79G (Homo sapiens, UniProt P36544, Q79G).
T5 construct: expressed in transfected cells; host or cells: HEK 293 cells
In words: whole cell voltage clamp recordings (Iss, Ipeak). Format: cell-based. The conditions noted are these: IPD GlyR.

For the next assay, the target named is T6, α7-5HT3 Q79G Q139M (Homo sapiens, UniProt P36544, M226I/Q139M/Q79G/T225I).
T6 construct: expressed in transfected cells
In words: fluorescence membrane potential (MP) assay, HEK 293 cells. Format: cell-based, human/mouse.

Assay [8] concerns the target T7, α7-5HT3 HC L141F expressed in layer ⅔ cortical neurons (Homo sapiens, UniProt P36544, L141F/M226I/T225I).
T7 construct: expressed in transfected cells; host or cells: HEK 293 cells (A14); mouse layer 2/3 cortical neurons (A19)
As to the kind of experiment: cell attached recording of firing in layer ⅔ cortical neurons. The following applies: 3 μM. Format: cell-based, mouse. An excerpt:
FIG. 7. High conductance chimeric cationic ligand-gated ion channel activates layer ⅔ cortical neurons. A. Current trace from voltage clamp recordings in HEK 293 cells transfected with high conductance (HC) α7-5HT3 L141F receptors showing sustained response of the receptor to compound 89S. B. Cell attached extracellular recording of action currents from mouse layer ⅔ cortical neurons transfected with HC α7-5HT3 L141F. In addition to the mutation in the ligand binding domain (e.g., L141F), these receptors contain high conductance inducing mutations in the α7-5HT3 sequence: R425Q R429D R433A in SEQ ID NO: 1.
To develop a neuron activating cation channel, we further modified the α7-5HT3 channel with three previously described mutations that were reported to provide a 100-fold increase in conductance: R425Q R429D R433A.

Assay [9] concerns the target T8, α7-GlyR L141F in cortical neurons (AAV, synapsin promoter) (Homo sapiens, UniProt P36544, L141F).
T8 construct: expressed in transfected cells; host or cells: HEK 293 cells (A15); cortical neurons transduced with AAV, synapsin promoter (A22)
As to the kind of experiment: excitability of AAV-transduced cortical neurons. The following applies: 10 μM; current injection up to 500 pA. Format: cell-based. As to the method: (§1) FIG. 9. Synthetic ligand-induced silencing of a cortical neuron transduced by viral gene delivery α7-GlyR L141F mutant chimeric ligand-gated ion channels. Cortical neurons were transduced with adeno-associated virus (AAV) encoding the α7-GlyR L141F mutant chimeric ligand-gated ion channel under the control of the neuron-specific synapsin promoter. A. Excitability of a transfected cortical neuron before, during, and after administration of compound 89S (10 μM). […] The neuron fires normally with <100 pA injected current before and after the compound administration. B. Excitability of a non-transduced neuron is shown for comparison. Non-transduced neurons are not affected by administration of compound 89S, even at a higher concentration (30 μM).
(§2) The synapsin promoter, which restricts gene expression to neuronal cell types, was used to drive expression of α7-GlyR L141F in an adeno-associated virus (AAV) gene delivery vector.

Another assay has as its system non-transduced neurons. In words: excitability of non-transduced cortical neurons. Format: cell-based. The following applies: even at 30 μM. On the procedure: as §1, §2
Assay [10] deals with T9, α7-5HT3 L141F (Homo sapiens, UniProt P36544, L141F/M226I/T225I).
T9 construct: expressed in transfected cells; host or cells: HEK 293 cells (ATCC CRL-1573)
As to the kind of experiment: whole cell voltage clamp recordings (Iss, Ipeak). Format: cell-based, human/mouse.

The target in assay [11] is T10, α7-GlyR L141F Y115F expressed in layer ⅔ cortical neurons (Homo sapiens, UniProt P36544, L141F/Y115F).
T10 construct: expressed in transfected cells; layer 2/3 cortical neurons (A20)
As to the kind of experiment: rheobase of layer ⅔ cortical neurons. Format: cell-based. An excerpt: (§3) FIG. 8. Chimeric α7-GlyR ligand-gated ion channel conducts chloride and greatly reduces excitability of cortical neurons in the presence of the cognate ligand. A. Current trace from voltage clamp recordings in transfected HEK 293 cells showing sustained responses of α7-GlyR and α7-GABA C mutant chimeric receptors to activation by synthetic ligands of the invention. Black line indicates time course of ligand application. […] C. Rheobase, which is the amount of current required to elicit an action potential, is not affected by expression of α7-GlyR L141F Y115F (labeled as condition: PRE). However, rheobase increases 10-fold in the presence of 10 μM compound 89S. There is no change in rheobase in untransfected neurons, even in the presence of 30 μM compound 89S. This reduction of excitability in α7-GlyR L141F Y115F expressing neurons is reversed after washout of the synthetic ligand (labeled as condition: WASH).
(§4) This was measured by the amount of current required to evoke and action potential, also termed rheobase (FIG. 8C). We found no difference in the rheobase of α7-GlyR L141F Y115F expressing neurons and untransfected cells.

Assay [12] addresses T11, α7-5HT3 HC L141F (R425Q R429D R433A) (Homo sapiens, UniProt P36544, L141F/M226I/T225I).
T11 construct: expressed in transfected cells; host or cells: HEK 293 cells (A14); mouse layer 2/3 cortical neurons (A19)
As to the kind of experiment: whole cell voltage clamp recordings (Iss, Ipeak). Format: cell-based, human/mouse.

Assay [13] has as its target T9, α7-5HT3 L141F. As to the kind of experiment: fluorescence membrane potential (MP) assay, HEK 293 cells. Format: cell-based, human/mouse.
The target in another assay is T12, α7-GABA C L141F (Homo sapiens, UniProt P36544, L141F).
T12 construct: expressed in transfected cells; host or cells: HEK 293 cells
As to the kind of experiment: whole cell voltage clamp recordings (Iss, Ipeak). Format: cell-based. The following applies: IPD GABAC.

The next assay deals with untransfected neurons. As to the kind of experiment: rheobase of untransfected cortical neurons. The following applies: even at 30 μM. Format: cell-based.
Excerpt: as §3, §4

In the next assay the target is T13, α7-GlyR L141F Y115F (Homo sapiens, UniProt P36544, L141F/Y115F).
T13 construct: expressed in transfected cells; layer 2/3 cortical neurons (A20)
As to the kind of experiment: whole cell voltage clamp recordings (Iss, Ipeak). Format: cell-based. The following applies: IPD GlyR.

The next assay addresses T14, α7-GlyR L141F (Homo sapiens, UniProt P36544, L141F).
T14 construct: expressed in transfected cells; host or cells: HEK 293 cells (A15); cortical neurons transduced with AAV, synapsin promoter (A22)
In words: whole cell voltage clamp recordings (Iss, Ipeak). The conditions noted are these: IPD GlyR. Format: cell-based.

Setting [14] is: peak current, IPD 5HT3, read-out: EC50-Ipeak.
Where [15] appears, read: steady state current, IPD 5HT3, read-out: EC50-Iss.
Where [16] appears, read: peak current, read-out: EC50-Ipeak.
[17] abbreviates: steady state current, read-out: EC50-Iss.

T2 sequence (P36544 with tags, fused parts or gaps Q79G/T225I/M226I): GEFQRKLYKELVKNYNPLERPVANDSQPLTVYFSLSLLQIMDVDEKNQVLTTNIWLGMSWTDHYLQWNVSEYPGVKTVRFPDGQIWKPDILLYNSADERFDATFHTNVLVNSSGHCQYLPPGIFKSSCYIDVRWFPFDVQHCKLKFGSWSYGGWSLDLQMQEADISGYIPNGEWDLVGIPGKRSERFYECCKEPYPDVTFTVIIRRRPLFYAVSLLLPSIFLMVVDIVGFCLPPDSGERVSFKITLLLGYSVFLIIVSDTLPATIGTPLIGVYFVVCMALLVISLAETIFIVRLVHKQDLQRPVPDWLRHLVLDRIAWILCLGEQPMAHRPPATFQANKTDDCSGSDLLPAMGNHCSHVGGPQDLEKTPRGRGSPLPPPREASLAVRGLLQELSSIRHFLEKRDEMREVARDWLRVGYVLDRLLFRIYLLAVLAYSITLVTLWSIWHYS
T1 sequence (P36544 with tags, fused parts or gaps T225I/M226I): as the sequence (P36544 with tags, fused parts or gaps Q79G/T225I/M226I) above, with G57Q counted along it
T9 sequence (P36544 with tags, fused parts or gaps L141F/T225I/M226I): as the sequence (P36544 with tags, fused parts or gaps Q79G/T225I/M226I) above, with G57Q, L119F counted along it
T3 sequence (P36544 with tags, fused parts or gaps Q79G/L141S/T225I/M226I): as the sequence (P36544 with tags, fused parts or gaps Q79G/T225I/M226I) above, with L119S counted along it
T10 sequence (P36544 with tags, fused parts or gaps Y115F/L141F): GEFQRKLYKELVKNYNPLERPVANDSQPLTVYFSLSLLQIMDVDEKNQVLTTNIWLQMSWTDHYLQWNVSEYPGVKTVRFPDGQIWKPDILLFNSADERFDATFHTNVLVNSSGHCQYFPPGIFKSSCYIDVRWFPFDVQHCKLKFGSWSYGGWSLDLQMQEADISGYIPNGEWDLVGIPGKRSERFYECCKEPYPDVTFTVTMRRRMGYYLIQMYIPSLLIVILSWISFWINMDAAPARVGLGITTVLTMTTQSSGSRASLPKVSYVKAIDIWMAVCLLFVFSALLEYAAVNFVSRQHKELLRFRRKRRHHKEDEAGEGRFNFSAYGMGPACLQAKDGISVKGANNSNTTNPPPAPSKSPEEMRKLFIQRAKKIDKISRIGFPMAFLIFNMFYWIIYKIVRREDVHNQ
T4 sequence (P36544 with tags, fused parts or gaps Q79G/Q139G/T225I/M226I): as the sequence (P36544 with tags, fused parts or gaps Q79G/T225I/M226I) above, with Q117G counted along it
T6 sequence (P36544 with tags, fused parts or gaps Q79G/Q139M/T225I/M226I): as the sequence (P36544 with tags, fused parts or gaps Q79G/T225I/M226I) above, with Q117M counted along it
T11 sequence (P36544 with tags, fused parts or gaps L141F/T225I/M226I): as the sequence (P36544 with tags, fused parts or gaps Q79G/T225I/M226I) above, with G57Q, L119F, R403Q, R407D, R411A counted along it
T14 sequence (P36544 with tags, fused parts or gaps L141F): as the sequence (P36544 with tags, fused parts or gaps Y115F/L141F) above, with F93Y counted along it
T8 sequence (P36544 with tags, fused parts or gaps L141F): as the sequence (P36544 with tags, fused parts or gaps Y115F/L141F) above, with F93Y counted along it
T5 sequence (P36544 with tags, fused parts or gaps Q79G): as the sequence (P36544 with tags, fused parts or gaps Y115F/L141F) above, with Q57G, F93Y, F119L counted along it
T12 sequence (P36544 with tags, fused parts or gaps L141F): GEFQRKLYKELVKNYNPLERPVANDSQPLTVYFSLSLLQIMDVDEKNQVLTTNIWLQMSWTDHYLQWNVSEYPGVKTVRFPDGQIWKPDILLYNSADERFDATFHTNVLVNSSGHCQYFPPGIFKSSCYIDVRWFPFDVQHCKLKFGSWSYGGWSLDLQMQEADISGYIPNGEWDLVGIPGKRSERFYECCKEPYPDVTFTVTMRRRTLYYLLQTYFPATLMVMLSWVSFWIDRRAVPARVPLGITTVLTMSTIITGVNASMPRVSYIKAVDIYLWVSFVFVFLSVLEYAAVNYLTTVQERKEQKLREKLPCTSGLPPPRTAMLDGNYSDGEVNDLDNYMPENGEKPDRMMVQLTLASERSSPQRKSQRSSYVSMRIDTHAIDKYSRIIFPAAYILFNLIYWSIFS
T13 sequence (P36544 with tags, fused parts or gaps Y115F/L141F): as the sequence (P36544 with tags, fused parts or gaps Y115F/L141F) above
T7 sequence (P36544 with tags, fused parts or gaps L141F/T225I/M226I): as the sequence (P36544 with tags, fused parts or gaps Q79G/T225I/M226I) above, with G57Q, L119F, R403Q, R407D, R411A counted along it

In the case of `CCCCc1ccc(C(=O)N[C@@H]2CN3CCC2CC3)cc1` [Compound 9S, (S)-4-butyl-N-(quinuclidin-3-yl)benzamide], the “activity against α7-5HT3 wt (unmodified) receptor” value (“activity against α7-5HT3 wt” below) in assay [1] is recorded as “did not induce activate”. Besides, the EC50 (as a rule, the concentration needed to bring the measured effect to its halfway point) is 4.3 µM at α7-5HT3 Q79G [2] (setting [14]); 2.3 µM on α7-5HT3 Q79G [2] (setting [15]); 12.3 µM on α7-5HT3 Q79G L141S [3] (setting [16]); 4 µM at α7-5HT3 Q79G L141S [3] (setting [17]); 4.1 µM at α7-5HT3 Q79G L141S [4]. Further, at α7-5HT3 Q79G L141S [3] (relative to α7-5HT3 Q79G), the “shift in the efficacy for α7-5HT3 Q79G L141S” value is given as “only slight shift”.

Take `O=C(N[C@@H]1CN2CCC1CC2)c1ccc(C(F)(F)F)cc1` [Compound 22S, (S)—N-(quinuclidin-3-yl)-4-(trifluoromethyl)benzamide]: the EC50 on α7-5HT3 Q79G Q139G [5] is 3.9 µM; on α7-5HT3 Q79G Q139G [6] (setting [14]) it was 11.6 ± 3.6 µM; at α7-5HT3 Q79G Q139G [6] (setting [15]), 2.7 ± 1 µM; at α7-5HT3 Q79G [7] (read-out: EC50-MP, α7 Q79G, IPD 5HT3, value (s.e.m.)), 0.8 µM; on α7-5HT3 Q79G [2] (setting [14]), 2.7 µM; at α7-5HT3 Q79G [2] (setting [15]) it was 0.4 µM. Also, the EC50 stood at 7.5 µM on α7-GlyR Q79G (setting [16]); 4.8 µM on α7-GlyR Q79G (setting [17]); 0.06 ± 0.04 µM on α7-5HT3 Q79G Q139M (α7 Q79G Q139M, IPD 5HT3, value (s.e.m.), read-out: EC50-MP). Besides, the “selectivity for Q79G relative to other mutant receptors” value on α7-5HT3 Q79G [7] (FIG. 5 dose response curves) is recorded as “selective”. In addition, the “activity against α7-5HT3 wt” value in assay [1] is given as “did not induce activate”. Moreover, the “fold improvement in potency (EC50), α7-5HT3 Q79G Q139M relative to α7-5HT3 Q79G” value at α7-5HT3 Q79G Q139M (EC50MP) is recorded as 20 fold.

Turning to `COc1ccc(OC)c(C(=O)N[C@@H]2CN3CCC2CC3)c1` [Compound 89S, (S)-2,5-dimethoxy-N-(quinuclidin-3-yl)benzamide], the “firing rate of neurons” value in [8] is given as “sustainably increased”. In assay [9], the “excitability (silencing) of transduced neurons” value was “rendered sensitive to silencing; also recorded: poorly excitable”. In the assay on non-transduced neurons, the “excitability of non-transduced neurons” value is reported as “unaffected; also recorded: not affected”. Further, the EC50 was determined as 3.2 µM on α7-5HT3 L141F [10] (read-out: EC50-Ipeak, peak current, IPD 5HT3); 0.7 µM on α7-5HT3 L141F [10] (read-out: EC50-Iss, steady state current, IPD 5HT3); 2.3 µM in [12] (read-out: EC50-Ipeak, peak current, IPD 5HT3 HC); 1.5 µM in [12] (read-out: EC50-Iss, steady state current, IPD 5HT3 HC); 0.4 ± 0.1 µM on α7-5HT3 L141F [13] (read-out: EC50-MP, α7 L141F, IPD 5HT3, value (s.e.m.)); 8.8 µM on α7-GABA C L141F (EC50-Ipeak, peak current). Besides, the EC50 was 4.9 µM at α7-GABA C L141F (EC50-Iss, steady state current); 6.9 µM at α7-GlyR L141F Y115F (EC50-Ipeak, peak current); 5.2 µM on α7-GlyR L141F Y115F (EC50-Iss, steady state current); 1.8 µM on α7-GlyR L141F (EC50-Iss, steady state current). The compound also displayed an increase of rheobase in [11] (10 μM) of 10 fold. Also, the “reversibility of the effect on neuronal excitability after washout” value in assay [11] (washed away with drug-free buffer) is recorded as “rapidly reversible; also recorded: reversed”. The “selectivity for L141F relative to other mutant receptors” value at α7-5HT3 L141F [13] (FIG. 5 dose response curves) is reported as “selective”. Besides, the “activity against α7-5HT3 wt” value in assay [1] is listed as “no activity”. Further, in the assay with untransfected neurons, the “change in rheobase in untransfected neurons” value was “no change”. Besides, the EC50-Ipeak result at α7-GlyR L141F (peak current, *complex: multiphasic dose response) is “*complex”.
